Data published in US20200361895A1, “NOVEL SULFONAMIDE CARBOXAMIDE COMPOUNDS” (Inflazome Limited, priority 2017, published 2020).
Structures can show the parent of a compound that is named as a salt.

Assays:
NLRP3 [1] = molecular target: T1, NLRP3 (Homo sapiens, UniProt Q96P20); assay: THP-1 cells pyroptosis assay (LPS + nigericin, resazurin readout; THP IC50); assay type: cell-based; set-up: Seed THP-1 cells (25,000 cells/well) containing 1.0 μg/ml LPS in 40 μl of RPMI medium; host or cells: THP-1 cells
Procedure, shortened: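 IC50 from 4-parameter fit of resazurin fluorescence (100 μM, 1-2 hrs), reflecting surviving cells after pyroptosis. LPS-primed (1 μg/ml) THP-1 cells in FBS-free RPMI got compound for 3 hrs at 37° C (top 10 μM, half-log, 8 points), then nigericin 5 μM for 1 hr.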

NLRP3 [2] = molecular target: T1, NLRP3; assay: Human whole blood IL1β release assay (LPS + nigericin, AlphaLisa IL-1β; HWB IC50); assay type: cell-based; set-up: Human whole blood in Li-heparin tubes was obtained from healthy donors from a volunteer donor panel; from tissue; host or cells: human whole blood from healthy donors; conditions: IL-1β release
Description: For systemic delivery, the ability to inhibit NLRP3 when the compounds are present within the bloodstream is of great importance. For this reason, the NLRP3 inhibitory activity of a number of compounds in human whole blood was investigated in accordance with the following protocol.
Human whole blood in Li-heparin tubes was obtained from healthy donors from a volunteer donor panel. • 1. Plate out 80 μl of whole blood containing 1 μg/ml of LPS in 96-well, clear bottom cell culture plate (Corning #3585) • 2. Add 10 μl compound (8 points half-log dilution with 10 μM top dose) or vehicle (DMSO 0.1% FAC) to the appropriate wells • 3. Incubate for 3 hrs at 37° C., 5% CO2 • 4. Add 10 μl nigericin (Sigma #N7143) (10 μM FAC) to all wells • 5. Incubate for 1 hr at 37° C., 5% CO2 • 6. At the end of the incubation period, spin plates at 300×g for 5 mins to pellet cells and remove 20 μl of supernatant and add to 96-well v-bottom plates for IL-1β analysis (note: these plates containing the supernatants can be stored at −80° C. to be analysed at a later date) • 7. IL-1β was measured according to the manufacturer protocol (Perkin Elmer-AlphaLisa IL-1 Kit AL220F-5000) • 8. IC50 data is fitted to a non-linear regression equation (log inhibitor vs response-variable slope 4-parameters)

T1 sequence (Q96P20 whole entry): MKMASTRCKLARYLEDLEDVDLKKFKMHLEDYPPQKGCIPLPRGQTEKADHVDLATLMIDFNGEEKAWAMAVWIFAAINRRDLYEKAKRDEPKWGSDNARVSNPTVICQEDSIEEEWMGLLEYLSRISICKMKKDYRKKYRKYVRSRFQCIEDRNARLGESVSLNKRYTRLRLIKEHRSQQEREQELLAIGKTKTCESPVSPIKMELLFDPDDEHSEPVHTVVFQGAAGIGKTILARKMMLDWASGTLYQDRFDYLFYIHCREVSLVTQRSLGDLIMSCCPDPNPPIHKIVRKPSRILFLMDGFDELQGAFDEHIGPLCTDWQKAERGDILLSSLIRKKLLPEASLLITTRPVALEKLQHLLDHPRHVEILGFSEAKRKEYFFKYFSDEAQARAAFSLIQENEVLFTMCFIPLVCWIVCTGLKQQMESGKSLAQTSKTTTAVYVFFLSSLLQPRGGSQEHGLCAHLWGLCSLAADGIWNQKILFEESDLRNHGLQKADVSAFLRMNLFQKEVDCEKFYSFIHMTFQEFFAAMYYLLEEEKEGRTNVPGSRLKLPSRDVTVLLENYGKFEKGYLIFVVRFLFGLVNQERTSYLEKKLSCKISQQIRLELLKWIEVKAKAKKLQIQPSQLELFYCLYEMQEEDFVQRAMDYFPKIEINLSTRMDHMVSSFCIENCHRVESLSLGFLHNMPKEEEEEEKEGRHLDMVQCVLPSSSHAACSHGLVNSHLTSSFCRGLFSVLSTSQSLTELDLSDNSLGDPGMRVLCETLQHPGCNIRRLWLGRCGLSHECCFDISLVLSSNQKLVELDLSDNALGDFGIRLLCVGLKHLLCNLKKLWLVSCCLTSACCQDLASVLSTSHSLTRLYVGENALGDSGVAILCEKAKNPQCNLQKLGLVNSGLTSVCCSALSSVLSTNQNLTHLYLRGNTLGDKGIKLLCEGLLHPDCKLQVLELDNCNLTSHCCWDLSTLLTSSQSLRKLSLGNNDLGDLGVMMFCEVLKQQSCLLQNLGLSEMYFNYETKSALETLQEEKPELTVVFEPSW

Row | Compound | IC50 (NLRP3 [1]) [nM] | IC50 (NLRP3 [2]) [nM]
1 | Cc1cc(C)nc(S(=O)(=O)NC(=O)Nc2c(-c3ccncc3)cc(F)c3c2CCC3)n1 [Example 117, N-((7-Fluoro-5-(pyridin-4-yl)-2,3-dihydro-1H-inden-4-yl)carbamoyl)-4,6-dimethylpyrimidine-2-sulfonamide] | ≤ 500 | ≤ 1000
2 | COc1cc(-c2ccc3c(c2NC(=O)NS(=O)(=O)N(C)CC2CCCN2C)CCC3)ccn1 (stereo not drawn) [Example 123, 3-(N-Methyl-N-((1-methylpyrrolidin-2-yl)methyl)sulfamoyl)-1-(5-(2-methoxypyridin-4-yl)-2,3-dihydro-1H-inden-4-yl)urea] | ≤ 500 | ≤ 500
3 | COc1cc(-c2cc(F)c3c(c2NC(=O)NS(=O)(=O)N2C[C@H]4C[C@@H]2CN4C)CCC3)ccn1 [Example 126, (1R,4R)—N-((7-Fluoro-5-(2-methoxypyridin-4-yl)-2,3-dihydro-1H-inden-4-yl)carbamoyl)-5-methyl-2,5-diazabicyclo[2.2.1]heptane-2-sulfonamide] | ≤ 500 | ≤ 500
4 | O=C(Nc1c(-c2ccncc2)cc(F)c2c1CCC2)NS(=O)(=O)CCc1ccccc1 [Example 138, N-((7-Fluoro-5-(pyridin-4-yl)-2,3-dihydro-1H-inden-4-yl)carbamoyl)-2-phenylethanesulfonamide] | ≤ 1000 | ≤ 10000
5 | COc1cc(-c2ccc3c(c2NC(=O)NS(=O)(=O)c2cnn(C4CC4)c2)CCC3)ccn1 [Example 145, 1-Cyclopropyl-N-((5-(2-methoxypyridin-4-yl)-2,3-dihydro-1H-inden-4-yl)carbamoyl)-1H-pyrazole-4-sulfonamide] | ≤ 500 | ≤ 1000
6 | CCN(CC)CCCS(=O)(=O)NC(=O)Nc1c(-c2ccncc2)cc(F)c2c1CCC2 [Example 149, 3-(Diethylamino)-N-((7-fluoro-5-(pyridin-4-yl)-2,3-dihydro-1H-inden-4-yl)carbamoyl)propane-1-sulfonamide] | ≤ 500 | ≤ 500
7 | CCN(CCCS(=O)(=O)NC(=O)Nc1c(-c2ccncc2)cc(F)c2c1CCC2)Cc1ccccc1 [Example 153, 3-(Benzyl(ethyl)amino)-N-((7-fluoro-5-(pyridin-4-yl)-2,3-dihydro-1H-inden-4-yl)carbamoyl)propane-1-sulfonamide] | ≤ 500 | ≤ 5000
8 | COc1cc(-c2ccc3c(c2NC(=O)NS(=O)(=O)CC2CCN(C)C2)CCC3)ccn1 (stereo not drawn) [Example 164, N-((5-(2-Methoxypyridin-4-yl)-2,3-dihydro-1H-inden-4-yl)carbamoyl)-1-(1-methylpyrrolidin-3-yl) methanesulfonamide] | ≤ 500 | ≤ 500
9 | COCCN(CCOC)C(=O)c1cc(S(=O)(=O)NC(=O)Nc2c(-c3ccnc(OC)c3)ccc3c2CCC3)nn1C [Example 167, N,N-Bis(2-methoxyethyl)-3-(N-((5-(2-methoxypyridin-4-yl)-2,3-dihydro-1H-inden-4-yl)carbamoyl)sulfamoyl)-1-methyl-1H-pyrazole-5-carboxamide, sodium salt] | ≤ 500 | ≤ 500

The remaining lines, values ahead:

Row | IC50 (NLRP3 [1]) [nM] | IC50 (NLRP3 [2]) [nM] | Compound
10 | ≤ 500 | ≤ 5000 | COc1cc(-c2ccc3c(c2NC(=O)NS(=O)(=O)c2cnc(N(C)C)cn2)CCC3)ccn1 [Example 108, 5-(Dimethylamino)-N-((5-(2-methoxypyridin-4-yl)-2,3-dihydro-1H-inden-4-yl)carbamoyl)pyrazine-2-sulfonamide]
11 | ≤ 500 | ≤ 5000 | CN(C)c1cnc(S(=O)(=O)NC(=O)Nc2c(-c3ccncc3)cc(F)c3c2CCC3)cn1 [Example 109, 5-(Dimethylamino)-N-((7-fluoro-5-(pyridin-4-yl)-2,3-dihydro-1H-inden-4-yl)carbamoyl)pyrazine-2-sulfonamide]
12 | ≤ 500 | ≤ 5000 | Cc1cc(C)nc(S(=O)(=O)NC(=O)Nc2c(-c3ccnc(C#N)c3)cc(F)cc2C(C)C)n1 [Example 114, N-((2-(2-Cyanopyridin-4-yl)-4-fluoro-6-isopropylphenyl)carbamoyl)-4,6-dimethylpyrimidine-2-sulfonamide]
13 | ≤ 500 | ≤ 500 | COc1cc(-c2ccc3c(c2NC(=O)NS(=O)(=O)c2nc(C)cc(C)n2)CCC3)ccn1 [Example 116, N-((5-(2-Methoxypyridin-4-yl)-2,3-dihydro-1H-inden-4-yl)carbamoyl)-4,6-dimethylpyrimidine-2-sulfonamide]
14 | ≤ 500 | ≤ 1000 | CC(C)c1cc(F)cc(-c2ccnc(C#N)c2)c1NC(=O)NS(=O)(=O)c1cc(N(C)C)cnn1 [Example 118, N-((2-(2-Cyanopyridin-4-yl)-4-fluoro-6-isopropylphenyl)carbamoyl)-5-(dimethylamino)pyridazine-3-sulfonamide]
15 | ≤ 500 | ≤ 5000 | COc1cc(-c2cc(F)cc(C(C)C)c2NC(=O)NS(=O)(=O)c2cc(N(C)C)cnn2)ccn1 [Example 119, 5-(Dimethylamino)-N-((4-fluoro-2-isopropyl-6-(2-methoxypyridin-4-yl)phenyl)carbamoyl) pyridazine-3-sulfonamide]
16 | ≤ 500 | ≤ 5000 | COc1cc(-c2ccc3c(c2NC(=O)NS(=O)(=O)c2cc(N(C)C)cnn2)CCC3)ccn1 [Example 120, 5-(Dimethylamino)-N-((5-(2-methoxypyridin-4-yl)-2,3-dihydro-1H-inden-4-yl)carbamoyl) pyridazine-3-sulfonamide]
17 | ≤ 500 | ≤ 1000 | CN(C)c1cnnc(S(=O)(=O)NC(=O)Nc2c(-c3ccncc3)cc(F)c3c2CCC3)c1 [Example 121, 5-(Dimethylamino)-N-((7-fluoro-5-(pyridin-4-yl)-2,3-dihydro-1H-inden-4-yl)carbamoyl) pyridazine-3-sulfonamide]
18 | ≤ 500 | ≤ 500 | COc1cc(-c2cc(F)c3c(c2NC(=O)NS(=O)(=O)N(C)CC2CCCN2C)CCC3)ccn1 (stereo not drawn) [Example 125, 3-(N-Methyl-N-((1-methylpyrrolidin-2-yl)methyl)sulfamoyl)-1-(7-fluoro-5-(2-methoxypyridin-4-yl)-2,3-dihydro-1H-inden-4-yl)urea]
19 | ≤ 500 | ≤ 500 | COc1cc(-c2cc(F)cc(C(C)C)c2NC(=O)NS(=O)(=O)CC2CCN(C)C2)ccn1 (stereo not drawn) [Example 163, N-((4-Fluoro-2-isopropyl-6-(2-methoxypyridin-4-yl)phenyl)carbamoyl)-1-(1-methylpyrrolidin-3-yl) methanesulfonamide]
20 | ≤ 5000 | ≤ 10000 | COCCN(CCOC)C(=O)c1cc(S(=O)(=O)NC(=O)Nc2c(-c3ccnc(OC(C)C)c3)cc(F)cc2C(C)C)nn1C [Example 166, 3-(N-((4-Fluoro-2-(2-isopropoxypyridin-4-yl)-6-isopropyl-phenyl)carbamoyl)sulfamoyl)-N,N-bis(2-methoxyethyl)-1-methyl-1H-pyrazole-5-carboxamide, sodium salt]
21 | ≤ 500 | ≤ 5000 | CC(C)Oc1cc(-c2cc(F)cc(C(C)C)c2NC(=O)NS(=O)(=O)c2cc(C(=O)N(C)C)n(C)n2)ccn1 [Example 168, 3-(N-((4-Fluoro-2-(2-isopropoxypyridin-4-yl)-6-isopropyl-phenyl)carbamoyl)sulfamoyl)-N,N,1-trimethyl-1H-pyrazole-5-carboxamide, sodium salt]
